11 molecules from patent US20050256093A1, “Branched polyamine steroid derivatives” (Leo Pharma, priority 2002, published 2005) can be followed below.

Values after ≈ are worked out from the molar mass of the structure shown.

Common to all, as to experiment: agar cup assay MIC
Holding throughout (type): cell-based

One test has as its system Asbergillus niger ZM35. Particulars: Aspergillus niger. The text has this: (§1) In vitro investigations have shown a significant potency of the compounds of the invention against a large number of bacteria including gram-positive and gram-negative strains (Staphyiococci, Streptococci, Corynebacteriae, Mycobacteriae, Proteus, Propionibacterium, Pseudomonas, Neisseriae, E. coli) and fungal strains (Candida and Aspergillus). […] In addition, the studies of post-antibiotic effects point towards a strong bactericidal effect of the compounds of the invention. […] Minimum Inhibitory Concentrations were estimated using an agar cup assay. Bacterial strains were obtained from the American Type Culture Collection or from our own collection of clinical isolates. Colonies from fresh overnight culture were resuspended in saline water to 0.5 MacFarland corresponding to 10^8 CFU/ml. 200 ml Mueller Hinton agar (Oxoid) at 48° C. was inoculated at a concentration of 10^6 CFU/ml and poured into square petri dishes (245×245 mm). Holes were made in the inoculated plates and 200 μl of the compounds to be tested were disposed into each hole. A dilution series of compounds contained six dilution between 0.25 and 125 μg/ml. For Streptococci Mueller Hinton agar was supplemented with 5% sheep blood. Plates were appropriately incubated and zone diameters of growth inhibition were measured using an electronic caliper. MICs were estimated using a linear regression curve between the zone diameter of growth inhibition and the log2 of the sample concentration. The microbiological assay set up is in agreement with the European Pharmacopoeia 3rd edition (1997). The inhibition zones are function of the concentration of the compounds used. Known antibiotics including fusidic acid (FA), mupirocin and linezolid were used as reference compounds.

The subject of a further test is Candida albicans ZA.
Source text: as §1

Test [1] relates to Corynebacterium xerosis FF.
Source text: as §1

A further test relates to E. coli HA165. Particulars: Escherichia coli.
Source text: as §1

Test [2] concerns Propionibacterium acnes FN33. As to conditions: Cutibacterium acnes.
Source text: as §1

Test [3] relates to Pseudomonas aeruginosa BA17.
Source text: as §1

Another test relates to S. aureus CJ200. Particulars: Staphylococcus aureus.
Source text: as §1

In a further test the test system is S. aureus CJ234F. As to conditions: Staphylococcus aureus; S. aureus CJ234F (MRSA, Fus. resistant).
Source text: as §1

In the next test the test system is S. aureus CJ234R. Particulars: Staphylococcus aureus; S. aureus CJ234R (MRSA, Rifampicin resistant).
Source text: as §1

In a further test the test system is S. aureus CJ247. Particulars: Staphylococcus aureus.
Source text: as §1

In a further test the test system is S. aureus N6. As to conditions: Staphylococcus aureus; S. aureus N6 (Fus. resistant).
Source text: as §1

The subject of a further test is S. epidermis CK5. As to conditions: Staphylococcus epidermidis.
Source text: as §1

Test [4] deals with Saccaromyces cervisiae ZZ7. As to conditions: Saccharomyces cerevisiae.
Source text: as §1

Test [5] has as its system Streptococcus faecium EI19. Particulars: Enterococcus faecium; Streptococcus faecium EI19 (Penicillin resistant); agar with 5% sheep blood.
Source text: as §1

For test [6], the system named is Streptococcus pyogenes EC88. As to conditions: agar with 5% sheep blood.
Source text: as §1

A word on the MIC: it is the smallest concentration in the dilution series that meets the test's criterion for growth inhibition. On to `C[C@H](CCC(=O)NCCN(CCN)CCN)[C@H]1CC[C@H]2[C@@H]3CC[C@@H]4C[C@H](O)CC[C@]4(C)[C@H]3[C@H](O)C[C@]12C` [Compound 107], for which the minimum inhibitory concentration (MIC) (against Asbergillus niger ZM35; against Candida albicans ZA; in [1]; against E. coli HA165; in test [2]; in test [3]) was 16 mg/L (≈ 30.7 µM) in each case. Besides, the MIC in the test on S. aureus CJ200, with S. aureus CJ234F, against S. aureus CJ234R, against S. aureus CJ247, with S. aureus N6 and in the test with S. epidermis CK5 was 16 mg/L (≈ 30.7 µM) each time. In addition, the figures for the MIC in [4], in test [5] and in test [6] were 4 mg/L (≈ 7.68 µM), 16 mg/L (≈ 30.7 µM) and 16 mg/L (≈ 30.7 µM), respectively.
In the case of `CC(C)CCCC(C(=O)NCCCN(CCCN)CCCN)[C@H]1CC[C@@]2(C)C1CCC1[C@@]3(C)CC[C@@H](O)[C@@H](C)C3CC[C@@]12C` (stereo partly shown) [Compound 117, 21-N-{3′-[bis(3′-aminopropyl)amino]propyl}-1-11-desoxy-16-desacetoxy-17S,20,24,25-tetrahydrofusid-21-amide], the minimum inhibitory concentration (MIC) in test [1] stood at 0.25 mg/L (≈ 0.405 µM); against S. aureus CJ200 it was 1 mg/L (≈ 1.62 µM); against S. aureus CJ234F, 1 mg/L (≈ 1.62 µM); against S. aureus CJ234R it was 1 mg/L (≈ 1.62 µM); in the test on S. aureus CJ247 it was 1 mg/L (≈ 1.62 µM); in the test with S. aureus N6 it was 1 mg/L (≈ 1.62 µM). Moreover, the MIC in the test with S. epidermis CK5 is 1 mg/L (≈ 1.62 µM).
`CC(C)CCCC(C(=O)NCCN(CCN)CCN)[C@H]1CC[C@@]2(C)C1CCC1[C@@]3(C)CC[C@@H](O)[C@@H](C)C3CC[C@@]12C` (stereo partly shown) [Compound 112, 21-N-{2′-[bis(2′-aminoethyl)amino]ethyl}-11-desoxy-16-desacetoxy-17S,20,24,25-tetrahydrofusid-21-amide]: the MIC in test [1] worked out at 0.25 mg/L (≈ 0.435 µM); in the test with S. aureus CJ200, 1 mg/L (≈ 1.74 µM); against S. aureus CJ234F, 1 mg/L (≈ 1.74 µM); against S. aureus CJ234R, 1 mg/L (≈ 1.74 µM); in the test with S. aureus CJ247 it was 1 mg/L (≈ 1.74 µM); in the test on S. aureus N6, 1 mg/L (≈ 1.74 µM). The molecule also yielded an MIC in the test on S. epidermis CK5 of 1 mg/L (≈ 1.74 µM).
As for `C[C@H](C(=O)NCCCN(CCCN)CCCN)[C@H]1CC[C@H]2[C@@H]3CC=C4C[C@@H](O)CC[C@]4(C)[C@H]3CC[C@]12C` [Compound 114, 22-N-{3′-[bis(3′-aminopropyl)amino]propyl}-23,24-bisnor-5-cholenic-22-amide], the MIC with Candida albicans ZA is over 125 mg/L; in [1], 64 mg/L (≈ 124 µM); against E. coli HA165, 16 mg/L (≈ 31 µM); in test [2] it was 16 mg/L (≈ 31 µM); in [3], over 125 mg/L; against S. aureus CJ200, 16 mg/L (≈ 31 µM). Also, the MIC in the test on S. aureus CJ234F turned out to be 16 mg/L (≈ 31 µM); in the test on S. aureus CJ234R, 16 mg/L (≈ 31 µM); in the test on S. aureus CJ247, 16 mg/L (≈ 31 µM); against S. aureus N6, 16 mg/L (≈ 31 µM); against S. epidermis CK5, 16 mg/L (≈ 31 µM); in test [4], 64 mg/L (≈ 124 µM). Moreover, the MIC in test [6] was 64 mg/L (≈ 124 µM).
As to `CC(=O)O[C@H]1C[C@@]2(C)C(CCC3[C@@]4(C)CC[C@@H](OS(=O)(=O)O)[C@@H](C)C4CC[C@@]32C)[C@@H]1[C@H](CCCC(C)C)C(=O)NCCCN(CCCN)CCCN` (stereo partly shown) [Compound 116], the MIC against Asbergillus niger ZM35 stood at 64 mg/L (≈ 84.8 µM); with Candida albicans ZA it was 64 mg/L (≈ 84.8 µM); in test [1], 4 mg/L (≈ 5.3 µM); against E. coli HA165 it was 64 mg/L (≈ 84.8 µM); in [2], 16 mg/L (≈ 21.2 µM); in test [3], 125 mg/L (≈ 166 µM). In addition, the minimal inhibitory concentration (MIC) against S. aureus CJ200 is 4 mg/L (≈ 5.3 µM); against S. aureus CJ234F, 4 mg/L (≈ 5.3 µM); in the test with S. aureus CJ234R, 4 mg/L (≈ 5.3 µM); against S. epidermis CK5, 4 mg/L (≈ 5.3 µM); in [4] it was 16 mg/L (≈ 21.2 µM); in [6], 16 mg/L (≈ 21.2 µM).
With `CC(=O)O[C@H]1C[C@@]2(C)C(CC=C3[C@]2(C)CCC2[C@H](C)[C@H](O)CC[C@]32C)[C@@H]1[C@H](CCCC(C)C)C(=O)NCCN(CCN)CCN` (stereo partly drawn) [Compound 106, 21-N-{2′-[bis(2′-aminoethyl)amino]ethyl}-9(11)-en-17R,20S,24,25-tetrahydrofusid-21-amide], the MIC amounted to 63 mg/L (≈ 99.8 µM) with Asbergillus niger ZM35; 16 mg/L (≈ 25.4 µM) against Candida albicans ZA; 4 mg/L (≈ 6.34 µM) in test [1]; 16 mg/L (≈ 25.4 µM) against E. coli HA165; 4 mg/L (≈ 6.34 µM) in [2]; 16 mg/L (≈ 25.4 µM) in test [3]. Besides, the MIC in the test with S. aureus CJ234F worked out at 4 mg/L (≈ 6.34 µM); in the test with S. aureus CJ234R, 4 mg/L (≈ 6.34 µM); against S. aureus CJ247 it was 4 mg/L (≈ 6.34 µM); in the test on S. aureus N6, 4 mg/L (≈ 6.34 µM); against S. epidermis CK5, 4 mg/L (≈ 6.34 µM); in [4] it was 16 mg/L (≈ 25.4 µM). In addition, the MIC in test [5] stood at 16 mg/L (≈ 25.4 µM); in test [6], 4 mg/L (≈ 6.34 µM).
Regarding `CC(=O)O[C@H]1C[C@@]2(C)C(C[C@@H](O)C3[C@@]4(C)CC[C@@H](OC(C)=O)[C@@H](C)C4CC[C@@]32C)[C@@H]1[C@H](CCCC(C)C)C(=O)NCCCN(CCCN)CCCN` (stereo partly shown) [Compound 115], the minimal inhibitory concentration (MIC) with Asbergillus niger ZM35 was 125 mg/L (≈ 171 µM); against Candida albicans ZA, 16 mg/L (≈ 21.8 µM); in [1], 64 mg/L (≈ 87.3 µM); with E. coli HA165 it was 16 mg/L (≈ 21.8 µM); in test [2] it was 4 mg/L (≈ 5.46 µM); in test [3], 16 mg/L (≈ 21.8 µM). Also, the MIC worked out at 4 mg/L (≈ 5.46 µM) against S. aureus CJ200; 4 mg/L (≈ 5.46 µM) with S. aureus CJ234R; 4 mg/L (≈ 5.46 µM) in the test with S. epidermis CK5; 16 mg/L (≈ 21.8 µM) in test [4]; 4 mg/L (≈ 5.46 µM) in test [6].
In the case of `CC(=O)O[C@H]1C[C@@]2(C)[C@@H](C[C@@H](O)[C@H]3[C@@]4(C)CC[C@@H](O)[C@@H](C)[C@@H]4CC[C@@]32C)/C1=C(\CCC=C(C)C)C(=O)O` [FA, fusidic acid, reference compound], the MIC was over 64 mg/L against Asbergillus niger ZM35; over 64 mg/L in the test on Candida albicans ZA; 0.1 mg/L (≈ 0.194 µM) in test [1]; over 64 mg/L with E. coli HA165; 0.2 mg/L (≈ 0.387 µM) in [2]; over 64 mg/L in [3]. In addition, the MIC with S. aureus CJ200 amounted to 0.02 mg/L (≈ 0.0387 µM); against S. aureus CJ234F it was 16 mg/L (≈ 31 µM); against S. aureus CJ234R, 0.02 mg/L (≈ 0.0387 µM); with S. aureus CJ247, 0.02 mg/L (≈ 0.0387 µM); in the test on S. aureus N6 it was 16 mg/L (≈ 31 µM); against S. epidermis CK5, 0.02 mg/L (≈ 0.0387 µM). Moreover, the results for the MIC in [4] and in test [6] were over 64 mg/L and 16 mg/L (≈ 31 µM), respectively.
As to `CC(=O)O[C@H]1C[C@@]2(C)C(CCC3[C@@]4(C)CC[C@@H](OS(=O)(=O)O)[C@@H](C)C4CC[C@@]32C)[C@@H]1[C@H](CCCC(C)C)C(=O)NCCN(CCN)CCN` (stereo partly shown) [Compound 111, 21-N-{2′-[bis(2′-aminoethyl)amino]ethyl}-3-OSO3-11-desoxy-17,20,24,25-tetrahydro-fusid-21-amide], the MIC against Asbergillus niger ZM35 is 64 mg/L (≈ 89.8 µM); in the test on Candida albicans ZA, 125 mg/L (≈ 175 µM); in test [1], 16 mg/L (≈ 22.4 µM); in the test with E. coli HA165, 16 mg/L (≈ 22.4 µM); in test [2] it was 4 mg/L (≈ 5.61 µM); in test [3] it was over 125 mg/L. Further, the MIC amounted to 16 mg/L (≈ 22.4 µM) against S. aureus CJ200; 16 mg/L (≈ 22.4 µM) against S. aureus CJ234F; 16 mg/L (≈ 22.4 µM) against S. aureus CJ234R; 4 mg/L (≈ 5.61 µM) in the test with S. epidermis CK5; 64 mg/L (≈ 89.8 µM) in [4]; 16 mg/L (≈ 22.4 µM) in test [6].
On to `C/C(=C\C(=O)OCCCCCCCCC(=O)O)C[C@@H]1OC[C@H](C[C@@H]2O[C@H]2[C@@H](C)[C@H](C)O)[C@@H](O)[C@H]1O` [Mupirocin, mupirocin, reference compound], for which the MIC came to 1 mg/L (≈ 2 µM) against S. aureus CJ200; 0.5 mg/L (≈ 0.999 µM) against S. aureus CJ234F; 1 mg/L (≈ 2 µM) in the test with S. aureus CJ234R; 0.5 mg/L (≈ 0.999 µM) against S. aureus CJ247; 0.04 mg/L (≈ 0.0799 µM) against S. epidermis CK5; 1 mg/L (≈ 2 µM) in test [6].
On to `CC(=O)NC[C@H]1CN(c2ccc(N3CCOCC3)c(F)c2)C(=O)O1` [Linezolid, linezolid, reference compound], for which the minimum inhibitory concentration (MIC) in test [2] was 1 mg/L (≈ 2.96 µM); with S. aureus CJ200 it was 4 mg/L (≈ 11.9 µM); with S. aureus CJ234F it was 1 mg/L (≈ 2.96 µM); in the test with S. aureus CJ234R, 16 mg/L (≈ 47.4 µM); against S. aureus CJ247, 1 mg/L (≈ 2.96 µM); in the test on S. epidermis CK5, 0.25 mg/L (≈ 0.741 µM). Besides, inhibition of growth in [6] (MIC) required 4 mg/L (≈ 11.9 µM).
